Reference: ChEMBL document CHEMBL4371080, “Multiple weak intercalation as a strategy for the inhibition of polymerases” (Bioorg Med Chem Lett, 2019)
Where a SMILES comes first, the peptide text is derived from it. Bridges are numbered along the chain shown (N, C = ends). [ ]: non-standard residue; d: D form. The star is where a group is joined. ξ: configuration not given here. Quinoxaline2carbonyl = O=C(c1cnc2ccccc2n1)*; ξDap = NCC(N)C(=O)O

Assays:
[1] = target: T1, Human immunodeficiency virus type 1 reverse transcriptase (Human immunodeficiency virus 1, UniProt Q72547); assay: Inhibition of HIV1 reverse transcriptase assessed as reduction in [3H]dTTP incorporation using poly(rA)/oligo(dT) as template/primer after 30 mins in presence of calf thymus DNA by scintillation counting method
[2] = target: T1, Human immunodeficiency virus type 1 reverse transcriptase; assay: Inhibition of HIV1 reverse transcriptase assessed as reduction in [3H]dTTP incorporation using poly(rA)/oligo(dT) as template/primer after 30 mins by scintillation counting method
[3] = target: T1, Human immunodeficiency virus type 1 reverse transcriptase; assay: Inhibition of HIV1 reverse transcriptase assessed as reduction in [3H]dTTP incorporation using poly(rA)/oligo(dT) as template/primer after 30 mins in presence of Triton-X-100 by scintillation counting method
[4] = target: Human immunodeficiency virus type 1 reverse transcriptase (Human immunodeficiency virus 1) (UniProt Q72547); assay: Inhibition of HIV1 reverse transcriptase assessed as reduction in [3H]dTTP incorporation by measuring proportional residual activity ratio at 20 uM using poly(rA)/oligo(dT) as template/primer after 30 mins by scintillation counting method relative to control
[5] = target: Human immunodeficiency virus type 1 reverse transcriptase (Human immunodeficiency virus 1) (UniProt Q72547); assay: Ratio of IC50 for inhibition of HIV1 reverse transcriptase in presence of calf thymus DNA to IC50 for inhibition of HIV1 reverse transcriptase in absence of calf thymus DNA
[6] = target: T2, DNA polymerase alpha catalytic subunit (Homo sapiens) (UniProt P09884); assay: Inhibition of human DNA polymerase-alpha assessed as reduction in [3H]dTTP incorporation in to activated calf thymus DNA substrate at 600 uM after 30 mins by scintillation counting method relative to control
T2 sequence (whole entry): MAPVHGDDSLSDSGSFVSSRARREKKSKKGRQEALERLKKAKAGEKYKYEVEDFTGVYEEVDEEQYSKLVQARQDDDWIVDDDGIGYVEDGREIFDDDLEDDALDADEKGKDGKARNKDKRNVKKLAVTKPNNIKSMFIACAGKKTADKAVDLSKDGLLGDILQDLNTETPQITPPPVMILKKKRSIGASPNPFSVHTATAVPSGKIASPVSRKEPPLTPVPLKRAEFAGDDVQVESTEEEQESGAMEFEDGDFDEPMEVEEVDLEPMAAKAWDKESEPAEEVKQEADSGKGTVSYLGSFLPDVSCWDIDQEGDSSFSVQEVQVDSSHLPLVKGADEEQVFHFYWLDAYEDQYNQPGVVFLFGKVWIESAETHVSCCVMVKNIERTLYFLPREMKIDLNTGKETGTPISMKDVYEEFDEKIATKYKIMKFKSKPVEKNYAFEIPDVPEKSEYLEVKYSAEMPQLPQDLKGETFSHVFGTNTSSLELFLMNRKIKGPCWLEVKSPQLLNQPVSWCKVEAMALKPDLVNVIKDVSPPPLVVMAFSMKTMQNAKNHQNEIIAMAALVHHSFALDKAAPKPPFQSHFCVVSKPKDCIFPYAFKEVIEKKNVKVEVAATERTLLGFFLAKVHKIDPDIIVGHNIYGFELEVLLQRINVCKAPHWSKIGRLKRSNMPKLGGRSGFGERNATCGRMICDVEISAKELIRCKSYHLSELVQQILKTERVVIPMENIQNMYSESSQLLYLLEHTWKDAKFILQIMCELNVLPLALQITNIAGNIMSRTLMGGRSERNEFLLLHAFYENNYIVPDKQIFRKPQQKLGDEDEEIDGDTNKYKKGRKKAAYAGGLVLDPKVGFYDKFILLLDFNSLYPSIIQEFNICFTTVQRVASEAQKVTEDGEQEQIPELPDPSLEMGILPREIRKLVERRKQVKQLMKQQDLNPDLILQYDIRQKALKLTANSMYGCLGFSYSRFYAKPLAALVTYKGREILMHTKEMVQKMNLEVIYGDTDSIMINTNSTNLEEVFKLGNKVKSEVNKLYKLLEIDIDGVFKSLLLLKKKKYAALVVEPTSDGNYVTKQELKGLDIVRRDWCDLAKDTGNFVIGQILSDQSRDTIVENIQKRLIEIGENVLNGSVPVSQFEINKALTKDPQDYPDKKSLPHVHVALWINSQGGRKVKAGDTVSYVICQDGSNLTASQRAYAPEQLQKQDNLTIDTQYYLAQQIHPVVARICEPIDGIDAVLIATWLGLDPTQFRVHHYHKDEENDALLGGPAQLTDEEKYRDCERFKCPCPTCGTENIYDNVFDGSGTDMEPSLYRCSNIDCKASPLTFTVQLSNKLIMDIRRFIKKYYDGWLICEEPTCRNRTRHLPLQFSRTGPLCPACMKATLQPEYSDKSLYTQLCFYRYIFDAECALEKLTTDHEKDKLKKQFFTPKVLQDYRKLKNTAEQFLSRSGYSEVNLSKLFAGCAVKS

IC50 [1]: 21.8 µM
IC50 [2]: 6.5 µM
IC50 [3]: 7 µM
Ratio [4]: 0.09
Ratio IC50 [5]: 3.5
inhibition [6]: 89%
Structure (SMILES): NCC1NC(=O)C[C@@H](C(N)=O)NC(=O)C(CNC(=O)c2cnc3ccccc3n2)NC(=O)CNC(=O)CNC(=O)CNC(=O)C(CNC(=O)c2cnc3ccccc3n2)NC1=O (stereo partly drawn) ([ξDap][ξDap](Quinoxaline2carbonyl)GGG[ξDap](Quinoxaline2carbonyl)D-NH2; lactam N-7)
